This note sets out measurements from patent US20070219214A1, “Dual NK2/NK3-antagonists, pharmaceutical compositions comprising them, and processes for their preparation” (Solvay pharmaceuticals GmbH, priority 2006, published 2007).

Like-named read-outs stand apart in the source and are kept apart here.

The target in assay [1] is T1, human NK1-receptor (Homo sapiens, UniProt P25103). Nature of the assay: Functional cellular test, Ca2+ measurements using FLIPR for NK1 activity. It is filed as cell-based. Further details: expressed in transfected cells; host or cells: CHO fibroblast cells. The text has this:
The NK receptor is coupled to Gq.
All steps were done under sterile conditions.

Assay [2] deals with T2, human NK2-receptor (Homo sapiens, UniProt P21452).
T2 sequence (P21452 1-398): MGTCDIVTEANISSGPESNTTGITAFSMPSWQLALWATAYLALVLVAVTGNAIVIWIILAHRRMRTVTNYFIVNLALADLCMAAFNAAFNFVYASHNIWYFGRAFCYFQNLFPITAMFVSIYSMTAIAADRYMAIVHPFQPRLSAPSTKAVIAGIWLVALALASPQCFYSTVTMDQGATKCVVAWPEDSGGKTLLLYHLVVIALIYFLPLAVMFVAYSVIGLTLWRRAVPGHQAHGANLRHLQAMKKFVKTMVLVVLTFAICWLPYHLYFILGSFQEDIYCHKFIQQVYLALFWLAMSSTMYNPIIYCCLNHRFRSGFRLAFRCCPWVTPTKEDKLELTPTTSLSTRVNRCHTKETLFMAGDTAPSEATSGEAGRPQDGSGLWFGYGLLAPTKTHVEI
The assay can be described thus: Functional cellular test, Ca2+ measurements using FLIPR for NK2 activity.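 Further: CHO cells stably expressing the human receptor, loaded with a calcium dye, antagonist inhibition of ligand-evoked intracellular calcium rise read as peak fluorescence change on FLIPR.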

Assay [3] concerns the target T3, human NK3 receptor (Homo sapiens, UniProt P29371).
T3 sequence (P29371 1-465): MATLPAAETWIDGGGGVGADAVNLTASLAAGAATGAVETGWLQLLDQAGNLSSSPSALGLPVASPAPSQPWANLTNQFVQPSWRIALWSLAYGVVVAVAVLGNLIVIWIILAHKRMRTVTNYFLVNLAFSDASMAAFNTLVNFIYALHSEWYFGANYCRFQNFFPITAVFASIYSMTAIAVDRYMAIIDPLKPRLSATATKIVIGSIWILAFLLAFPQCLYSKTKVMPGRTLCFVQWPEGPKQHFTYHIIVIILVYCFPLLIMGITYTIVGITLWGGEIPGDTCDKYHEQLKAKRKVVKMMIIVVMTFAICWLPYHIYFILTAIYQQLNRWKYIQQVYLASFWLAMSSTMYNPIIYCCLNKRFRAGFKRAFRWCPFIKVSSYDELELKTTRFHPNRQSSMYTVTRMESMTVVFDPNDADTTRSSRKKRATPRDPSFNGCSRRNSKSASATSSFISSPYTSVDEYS
The assay can be described thus: Functional cellular test, Ca2+ measurements using aequorin for NK3 activity. Format: cell-based. Further details: expressed in transfected cells; host or cells: cell line co-expressing mitochondrially targeted apoaequorin (CHO according to b76/b77). The conditions noted are these: read-out: pA2 data for NK3 (converted).

The target in assay [4] is T1, human NK1-receptor. Nature of the assay: Binding potency of the test substances to NK1-receptors in vitro ([3H]-Substance P displacement). As to conditions: human NK1-receptor in CHO cell membranes, average of at least three measurements. As to the method: 1. Determination of the Binding Potency of the Test Substances to NK1-Receptors in Vitro
The affinity of test compounds for NK1-receptors can be determined by measuring the ability of the test compound to displace a radiolabeled ligand from its specific binding site. The tests were performed at Solvay Pharmaceuticals, Weesp, The Netherlands.
Separation of bound radioactivity from free radioactivity was done by filtration through glass fiber filters (Packard GF/B) with several washings with ice-cold buffer solution. Bound radioactivity was measured with a liquid scintillation counter (total binding).
The inhibition constant (Ki) was calculated according to the Cheng-Prusoff equation, and listed as its negative logarithmic value (pKi). The pKi value describes the potency of a test compound to bind to a receptor.

The target of assay [5] is T3, human NK3 receptor. The assay can be described thus: Binding potency of the test substances to NK3-receptors in vitro ([3H]-SR 142801 displacement). On the set-up: expressed in transfected cells; host or cells: CHO cells (membrane preparation). The conditions noted are these: human NK3-receptor in CHO cell membranes, [3H]-SR 142801 (osanetant); average of at least three measurements; read-out: pKi, binding potency to NK3-receptors (converted). The method in brief:
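[3H]-osanetant displacement on membranes from CHO cells stably expressing the human receptor, with bound ligand separated by filtration and counted by scintillation. Nonspecific binding defined with 1 μmol/l unlabeled osanetant. IC50 converted to Ki by Cheng-Prusoff and reported as pKi, averaged over measurements.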

Assay [6] concerns the target T2, human NK2-receptor. Nature of the assay: Binding potency of the test substances to NK2-receptors in vitro ([3H]-SR 48968 displacement). Further details: expressed in transfected cells; host or cells: CHO cells (membrane preparation). As to conditions: human NK2-receptor in CHO cell membranes, [3H]-SR 48968 (saredutant); average of at least three measurements; read-out: pKi, binding potency to NK2-receptors (converted). The gist of the method:
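Membranes from CHO cells stably expressing the receptor were incubated with [3H]-saredutant plus test compound, then filtered and counted by liquid scintillation. Nonspecific binding defined with 0.1 μmol/l unlabeled saredutant. IC50 from displacement converted to Ki via Cheng-Prusoff and reported as pKi, averaged over measurements.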

The mark [7] stands for this setting: read-out: pA2 data for NK1 (converted).
Setting [8] is: read-out: pKi, binding potency to NK1-receptors (converted).
Setting [9] is: pKi, binding potency to NK1-receptors.

T1 sequence (P25103 whole entry): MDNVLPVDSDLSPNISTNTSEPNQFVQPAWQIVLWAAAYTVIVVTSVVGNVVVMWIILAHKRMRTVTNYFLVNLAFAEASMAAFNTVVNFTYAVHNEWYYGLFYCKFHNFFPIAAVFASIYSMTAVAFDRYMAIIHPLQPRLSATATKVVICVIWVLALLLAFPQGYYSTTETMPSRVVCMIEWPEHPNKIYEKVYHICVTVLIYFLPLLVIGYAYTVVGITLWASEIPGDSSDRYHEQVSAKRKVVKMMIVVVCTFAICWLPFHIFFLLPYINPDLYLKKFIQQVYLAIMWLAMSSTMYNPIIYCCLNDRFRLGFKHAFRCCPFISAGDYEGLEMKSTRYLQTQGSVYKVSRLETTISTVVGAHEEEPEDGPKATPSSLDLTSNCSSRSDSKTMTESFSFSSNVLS

With `CN(C)C(=O)C1(N2CCCCC2)CCN(CCC(CN(C)C(=O)c2cc(Cl)ccc2F)c2ccc(Cl)c(Cl)c2)CC1` (stereo not shown) [compound 10], the Kb in assay [1] (setting [7]) is 79.4 nM; in assay [2], 3.98 nM; in assay [3], 5.01 nM. In addition, the Ki in assay [4] (setting [8]) was 79.4 nM; in assay [5] it was 10 nM; in assay [6], 1.26 nM.
With `CN(C)C(=O)C1(N2CCCCC2)CCN(CCC(CN(C)C(=O)C2CCCC2)c2ccc(Cl)c(Cl)c2)CC1` (stereo not shown) [compound 23], the Kb in assay [1] (setting [7]) is 1.26 nM; in assay [2], 1.26 nM; in assay [3], 12.6 nM. Further, the values for the Ki in assay [5] and in assay [6] were 10 nM and 2 nM, respectively.
Take `CNC(=O)C1(N2CCCCC2)CCN(CCC(CN(C)C(=O)c2cc(C#N)cc3ccccc23)c2ccc(Cl)c(Cl)c2)CC1` (stereo not shown) [compound 93]: the Kb was 7.94 nM in assay [1] (setting [7]) and 3.98 nM in assay [2]. The Ki in assay [4] (setting [8]) was 7.94 nM; in assay [6] it was 15.8 nM.
Take `CN(C)C(=O)C1(N2CCCC2)CCN(CCC(CN(C)C(=O)c2cc(C#N)cc3ccccc23)c2ccc(Cl)c(Cl)c2)CC1` (stereo not shown) [compound 98]: the Kb in assay [1] (setting [7]) is 1.58 nM; in assay [2], 0.501 nM. For the same compound, the Ki is 5.01 nM in assay [4] (setting [8]), 63.1 nM in assay [5] and 5.01 nM in assay [6].
`CN(C)C(=O)C1(N2CCCC2)CCN(CC[C@H](CN(C)C(=O)c2ccccc2)c2ccc(Cl)c(Cl)c2)CC1` [compound 99, 1-[(3S)-4-[benzoyl(methyl)amino]-3-(3,4-dichlorophenyl)-butyl]-N,N-dimethyl-4-pyrrolidin-1-ylpiperidine-4-carboxamide]: the Kb was 50.1 nM in assay [1] (setting [7]) and 0.251 nM in assay [2]. The Ki in assay [5] is 63.1 nM; in assay [6] it was 0.631 nM.
On to `CN(C[C@@H](CCN1CCC(C(=O)N2CCCC2)(N2CCCC2)CC1)c1ccc(Cl)c(Cl)c1)C(=O)c1cc(C#N)cc2ccccc12` [compound 102, 3-cyano-N-{(2S)-2-(3,4-dichlorophenyl)-4-[4-pyrrolidin-1-yl-4-(pyrrolidin-1-ylcarbonyl)piperidin-1-yl]butyl}-N-methyl-1-naphthamide], for which the Kb in assay [1] (setting [7]) is 2 nM; in assay [2], 39.8 nM; in assay [3], 39.8 nM. The Ki in assay [4] (setting [8]) is 2 nM; in assay [6] it was 5.01 nM.
On to `CN(C[C@@H](CCN1CCC(C(=O)N2CCCC2)(N2CCCC2)CC1)c1ccc(Cl)c(Cl)c1)C(=O)c1ccccc1` [compound 103, N-{(2S)-2-(3,4-dichlorophenyl)-4-[4-pyrrolidin-1-yl-4-(pyrrolidin-1-ylcarbonyl)piperidin-1-yl]butyl}-N-methylbenzamide], for which the values for the Kb in assay [1] (setting [7]), in assay [2] and in assay [3] were 31.6 nM, 2 nM and 50.1 nM, respectively. The Ki in assay [4] (setting [8]) is 50.1 nM; in assay [6], 2 nM.
Take `CN(C[C@@H](CCN1CCC(C(=O)N2CCCCC2)(N2CCCCC2)CC1)c1ccc(Cl)c(Cl)c1)C(=O)c1ccccc1` [compound 104, N-{(2S)-2-(3,4-dichlorophenyl)-4-[4′-(piperidin-1-ylcarbonyl)-1,4′-bipiperidin-1′-yl]butyl}-N-methylbenzamide]: the Kb in assay [1] (setting [7]) was 20 nM; in assay [2], 15.8 nM; in assay [3], 15.8 nM. Further, the Ki in assay [5] was 20 nM; in assay [6] it was 2 nM.
For `CCC(=O)N(CC1CC1)C1CCN(CC[C@H](CN(C)C(=O)c2ccccc2)c2ccc(Cl)c(Cl)c2)CC1` [compound 105, N-[(2S)-4-{4-[(cyclopropylmethyl)(Propionyl)-amino]piperidin-1-yl}-2-(3,4-dichlorophenyl)butyl]-N-methylbenzamide], the Kb was 31.6 nM in assay [1] (setting [7]), 0.0794 nM in assay [2] and 100 nM in assay [3]. In addition, the Ki in assay [4] (setting [8]) was 25.1 nM; in assay [6] it was 2 nM.
Consider `CCCCN(C(=O)CC)C1CCN(CC[C@H](CN(C)C(=O)c2ccccc2)c2ccc(Cl)c(Cl)c2)CC1` [compound 108, N-[(2S)-4-{4-[butyl(propionyl)amino]piperidin-1-yl}-2-(3,4-dichlorophenyl)butyl]-N-methylbenzamide], for which the Kb in assay [1] was 31.6 nM; in assay [2] it was 1 nM. Further, the Ki in assay [4] (setting [9]) was 12.6 nM; in assay [6], 3.98 nM.
For `CCC(=O)N(C1CCCCC1)C1CCN(CC[C@H](CN(C)C(=O)c2ccccc2)c2ccc(Cl)c(Cl)c2)CC1` [compound 116, N-[(2S)-4-{4-[cyclohexyl(propionyl)amino]piperidin-1-yl}-2-(3,4-dichlorophenyl)butyl]-N-methyl-benzamide], the Kb in assay [1] was 31.6 nM; in assay [2] it was 1.26 nM. For the same compound, the Ki in assay [4] (setting [9]) is 79.4 nM; in assay [6], 5.01 nM.
